Assays:
ABUTH = test: greenhouse pre-emergence herbicidal activity against ABUTH; format: in vivo, Abutilon theophrasti; conditions: application rate 3.0 kg/ha, scale 0 to 100
Description: (§1) The seeds of the test plants were sown separately for each species. For the pre-emergence treatment, the active compounds, which had been suspended or emulsified in water, were applied directly after sowing by means of finely distributing nozzles. The containers were irrigated gently to promote germination and growth and subsequently covered with transparent plastic hoods until the plants had rooted. This cover caused uniform germination of the test plants, unless this has been impaired by the active compounds. Depending on the species, the plants were kept at 10-25° C. or 20-35° C. The test period extended over 2 to 4 weeks. During this time, the plants were tended, and their response to the individual treatments was evaluated. Evaluation was carried out using a scale from 0 to 100. 100 means no emergence of the plants, or complete destruction of at least the aerial moieties, and 0 means no damage, or normal course of growth. A good herbicidal activity is given at values of at least 70 and a very good herbicidal activity is given at values of at least 85. The plants used in the greenhouse experiments belonged to the following species: [table]

SETIT = test: greenhouse pre-emergence herbicidal activity against SETIT; format: in vivo, Setaria italica; conditions: application rate 3.0 kg/ha, scale 0 to 100
Description: as §1

ALOMY = test: greenhouse post-emergence herbicidal activity against ALOMY; format: in vivo, Alopecurus myosuroides; conditions: application rate 3.0 kg/ha, scale 0 to 100
Description: (§2) The seeds of the test plants were sown separately for each species. For the post-emergence treatment, the test plants were first grown to a height of 3 to 15 cm, depending on the plant habit, and then treated with the active compounds which had been suspended or emulsified in water. For this purpose, the test plants were either sown directly and grown in the same containers, or they were first grown separately as seedlings and transplanted into the test containers a few days prior to treatment. Depending on the species, the plants were kept at 10-25° C. or 20-35° C. The test period extended over 2 to 4 weeks. During this time, the plants were tended, and their response to the individual treatments was evaluated. Evaluation was carried out using a scale from 0 to 100. 100 means no emergence of the plants, or complete destruction of at least the aerial moieties, and 0 means no damage, or normal course of growth. A good herbicidal activity is given at values of at least 70 and a very good herbicidal activity is given at values of at least 85. The plants used in the greenhouse experiments belonged to the following species: [table]

AMARE = test: greenhouse post-emergence herbicidal activity against AMARE; format: in vivo, Amaranthus retroflexus; conditions: scale 0 to 100
Description: as §2

CHEAL = test: greenhouse post-emergence herbicidal activity against CHEAL; format: in vivo, Chenopodium album; conditions: scale 0 to 100
Description: as §2

GALAP = test: greenhouse post-emergence herbicidal activity against GALAP; format: in vivo, Galium aparine; conditions: application rate 0.25 kg/ha, scale 0 to 100
Description: as §2

SETFA = test: greenhouse post-emergence herbicidal activity against SETFA; format: in vivo, Setaria faberi; conditions: application rate 3.0 kg/ha, scale 0 to 100
Description: as §2

COC(=O)C(C(=O)c1ncccc1O)c1ccccc1C(F)(F)F (stereo not drawn) [I-1, methyl 3-(3-hydroxypyridin-2-yl)-3-oxo-2-(2-trifluoromethylphenyl)propionate]
herbicidal activity against ABUTH (ABUTH): good (A good herbicidal activity is given at values of at least 70) | herbicidal activity against SETIT (SETIT): very good (a very good herbicidal activity is given at values of at least 85) | herbicidal activity against ALOMY (ALOMY): good (A good herbicidal activity is given at values of at least 70) | herbicidal activity against AMARE (AMARE; application rate 0.25 kg/ha): Very good | herbicidal activity against CHEAL (CHEAL; application rate 0.25 kg/ha): Very good | herbicidal activity against GALAP (GALAP): very good (a very good herbicidal activity is given at values of at least 85) | herbicidal activity against SETFA (SETFA): very good (a very good herbicidal activity is given at values of at least 85)

COC(=O)C(=C(OC(C)=O)c1ncccc1OC(C)=O)c1ccccc1C(F)(F)F [I-2, methyl 3-acetoxy-3-(3-acetoxypyridin-2-yl)-2-(2-trifluoromethylphenyl)acrylate]
herbicidal activity against AMARE (AMARE; application rate 0.5 kg/ha): Very good | herbicidal activity against CHEAL (CHEAL; application rate 0.5 kg/ha): Very good

From US20110251063A1, “HETEROCYCLIC DIKETONE DERIVATIVES WITH HERBICIDAL ACTION” (priority 2008, published 2011)
